Data published in patent US7531558B2, “Carboxamide derivatives” (Glaxo Group Limited, priority 2003, dated 2009).

system: FCA-induced mechanical hyperalgesia; assay: FCA-induced hyperalgesia in the guinea pig (paw pressure, Randall-Sellito); type: in vivo; conditions: male Dunkin Hartley guinea-pigs; oral 3, 10, 30 mg/kg 24 h after intraplantar FCA; reading 1 hour after drug administration
Protocol: 100 μl of 1 mg/ml FCA was injected intraplantar into the left paw of 4 groups of 8 male Dunkin Hartley guinea-pigs (batch: 6282434, average weight 340 g). 24 hours later compounds were administered orally at 0 (vehicle), 3, 10 30 mg/kg with vehicle as 1% methylcellulose and dosing volume being 2 ml/kg and dosing straight into the stomach. The methylcellulose was added gradually to the compound into the pestle and mortar and ground together.
Behavioural readouts of mechanical hyperalgesia were obtained before FCA administration (naïve reading), after FCA but before drug administration (predose reading) and 1 hour after drug administration. The readout used was paw pressure (Randall-Sellito) and the end point was paw withdrawal. The paw pressure equipment also had one silver disc placed on the point to increase the markings by a factor of 2.

SMILES	activity in FCA-induced mechanical hyperalgesia (paw withdrawal)
Cc1nc2cc(NC(=O)c3ccc(-c4ccc(F)cc4)nc3C)ccc2s1 [Example 1, 6-(4-Fluorophenyl)-2-methyl-N-(2-methylbenzothiazol-5-yl)nicotinamide]	active
Cc1nc2cc(NC(=O)c3ccc(-c4ccc(F)cc4F)nc3C)ccc2s1 [Example 2, 6-(2,4-Difluorophenyl)-2-methyl-N-(2-methylbenzothiazol-5-yl)-nicotinamide]	active
Cc1nc2cc(NC(=O)c3ccc(-c4ccc(F)c(F)c4)nc3C)ccc2s1 [Example 3, 6-(3,4-Difluorophenyl)-2-methyl-N-(2-methylbenzothiazol-5-yl)-nicotinamide]	active
Cc1nc(-c2ccc(F)cc2)ccc1C(=O)Nc1ccc2scnc2c1 [Example 4, N-Benzothiazol-5-yl-6-(4-fluorophenyl)-2-methyl-nicotinamide]	active
Cc1nc2cc(NC(=O)c3ccc(-c4cccc(F)c4F)nc3C)ccc2s1 [Example 5, 6-(2,3-Difluorophenyl)-2-methyl-N-(2-methylbenzothiazol-5-yl)-nicotinamide]	active
Cc1nc2cc(NC(=O)N3CCN(c4ccccc4F)CC3)ccc2s1 [Example 16, 4-(2-Fluorophenyl)-N-(2-methylbenzothiazol-5-yl)-1-piperazine carboxamide]	active
